Results taken from patent US6399610B1, “Transmucosal formulations of levosimendan” (Orion Corporation, priority 1997, dated 2002).

Assay: Bioavailability of levosimendan following buccal and intravenous administration in dogs (plasma concentration)
Assay type: in vivo, beagle dogs
Conditions: for concentration at 10 min / concentration at 20 min / concentration at 40 min / concentration at 60 min / concentration at 90 min / concentration at 120 min: beagle, dog, plasma, 0.02 mg/kg; for concentration at 10 min / concentration at 20 min / concentration at 40 min / concentration at 60 min / concentration at 90 min / concentration at 120 min / Levosimendan concentration: dog plasma; for Levosimendan concentration: 0 min
Protocol: Bioavailability of levosimendan was studied in dogs following buccal and intravenous administration of 0.02 mg/kg of the compound. As experimental animals, three beagle dogs were used. At the time of dosing all animals weighed approximately 10 kg. The dogs were given levosimendan as an intravenous injection or buccal spray at one week intervals. Appropriate concentration (2 mg/ml in 96% ethanol) of the compound was prepared in 10 ml amber glass containers sealed with spray nozzles (50 μl dose, Pfeiffer). The 0.02 mg/kg buccal dose was thus obtained by spraying 2 consecutive 50 μl doses to the buccal cavity of the animals (the dosing volume being thus 0.1 ml/10 kg). The iv dose (0.1 ml/10 kg) was taken from the same bottles.
5 ml of blood was collected from the cephalic vein at the following times after administration: 0, 10, 20, 40, min, 1, 1.5 and 2 hours. Plasma was separated and stored frozen in −20 ° C. until analyzed.
Levosimendan in dog plasma was determined by a non-enantioselective method, in which an automated sample preparation technique combined with high performance liquid chromatography was used. The plasma clean-up was performed by on-line dialysis and the, dialysate was retained on a trace enrichment column. The analyte was then-separated on an analytical column and detected with a UV-detector. The limit of quantitation was 5 ng/ml and the quantitation range 5-500 ng/ml.
The apparatus comprised a Gilson ASTED (Automated Sequential Trace Enrichment System) system (Gilson Medical Electronics, Villiers-le-Bel, France). The dialysis cell was fitted with a Cuprophan cellulose membrane with a molecular cut-off of 15 kDa and the trace enrichment column was a Hypersil ODS (5.8×4.6 mm i.d., 10 μm). The chromatographic system consisted of an LKB Model 2150 pump (Bromma, Sweden) and a Lichrosorb RP-18 (250×4 mm i.d., 10 μm) column (Merck, Darmstadt, Germany). The detector was a Spectra 100 UV-VIS (Spectra-Physics, San Jose, Calif., USA). The wavelength was 380 nm. The mobile phase consisted of a 32 mM monosodium dihydrogen phosphate buffer, methanol, and tetrahydrofuran (45:65:1, v/v/v, pH 3.5). The mobile phase flow rate was 1.0 ml/min.

[1] = other: buccal spray, buccal spray 0.02 mg/kg, Dog 1
[2] = other: buccal spray, buccal spray 0.02 mg/kg, Dog 2
[3] = other: buccal spray, buccal spray 0.02 mg/kg, Dog 3

SMILES: CC1CC(=O)NN=C1c1ccc(NN=C(C#N)C#N)cc1 (single isomer, unassigned; (-)) [Levosimendan, (-)-enantiomer of [[4-(1,4,5,6-tetrahydro-4-methyl-6-oxo-3-pyridazinyl)phenyl]hydrazono]propanedinitrile]
- concentration at 10 min (iv, iv 0.02 mg/kg, Dog 1): 0.128 µg/mL
- concentration at 10 min (iv, iv 0.02 mg/kg, Dog 2): 0.103 µg/mL
- concentration at 10 min (iv, iv 0.02 mg/kg, Dog 3): 0.1 µg/mL
- concentration at 20 min (iv, iv 0.02 mg/kg, Dog 1): 0.105 µg/mL
- concentration at 20 min (iv, iv 0.02 mg/kg, Dog 2): 0.071 µg/mL
- concentration at 20 min (iv, iv 0.02 mg/kg, Dog 3): 0.082 µg/mL
- concentration at 40 min (iv, iv 0.02 mg/kg, Dog 1): 0.074 µg/mL
- concentration at 40 min (iv, iv 0.02 mg/kg, Dog 2): 0.046 µg/mL
- concentration at 40 min (iv, iv 0.02 mg/kg, Dog 3): 0.058 µg/mL
- concentration at 60 min (iv, iv 0.02 mg/kg, Dog 1): 0.058 µg/mL
- concentration at 60 min (iv, iv 0.02 mg/kg, Dog 2): 0.036 µg/mL
- concentration at 60 min (iv, iv 0.02 mg/kg, Dog 3): 0.046 µg/mL
- concentration at 90 min (iv, iv 0.02 mg/kg, Dog 1): 0.039 µg/mL
- concentration at 90 min (iv, iv 0.02 mg/kg, Dog 2): 0.024 µg/mL
- concentration at 90 min (iv, iv 0.02 mg/kg, Dog 3): 0.033 µg/mL
- concentration at 120 min (iv, iv 0.02 mg/kg, Dog 1): 0.028 µg/mL
- concentration at 120 min (iv, iv 0.02 mg/kg, Dog 2): 0.015 µg/mL
- concentration at 120 min (iv, iv 0.02 mg/kg, Dog 3): 0.025 µg/mL
- concentration at 10 min [1]: 0.01 µg/mL
- concentration at 10 min [2]: 0.017 µg/mL
- concentration at 10 min [3]: 0.0076 µg/mL
- concentration at 20 min [1]: 0.024 µg/mL
- concentration at 20 min [2]: 0.024 µg/mL
- concentration at 20 min [3]: 0.0094 µg/mL
- concentration at 40 min [1]: 0.032 µg/mL
- concentration at 40 min [2]: 0.025 µg/mL
- concentration at 40 min [3]: 0.025 µg/mL
- concentration at 60 min [1]: 0.026 µg/mL
- concentration at 60 min [2]: 0.022 µg/mL
- concentration at 60 min [3]: 0.024 µg/mL
- concentration at 90 min [1]: 0.018 µg/mL
- concentration at 90 min [2]: 0.017 µg/mL
- concentration at 90 min [3]: 0.022 µg/mL
- concentration at 120 min [1]: 0.013 µg/mL
- concentration at 120 min [2]: 0.012 µg/mL
- concentration at 120 min [3]: 0.016 µg/mL
- Levosimendan concentration (buccal spray 0.02 mg/kg, Dog 1): < (< means below quantitation range)
- Levosimendan concentration (buccal spray 0.02 mg/kg, Dog 2): < (< means below quantitation range)
- Levosimendan concentration (buccal spray 0.02 mg/kg, Dog 3): < (< means below quantitation range)
- Levosimendan concentration (iv 0.02 mg/kg, Dog 1): < (< means below quantitation range)
- Levosimendan concentration (iv 0.02 mg/kg, Dog 2): < (< means below quantitation range)
- Levosimendan concentration (iv 0.02 mg/kg, Dog 3): < (< means below quantitation range)
- Absorption into blood from the buccal spray (dogs, buccal spray 0.02 mg/kg): rapidly absorbed into blood
- Serum levels of levosimendan (dogs, buccal spray 0.02 mg/kg): steady serum levels
